Reference: patent US9169260B2 (MERCK SHARP & DOHME CORP., priority 2011, dated 2015)

biological target: GST tagged IRAK-4 (Homo sapiens (Human), UniProt Q9NWZ3); assay: IRAK-4 Kinase Assay (IMAP fluorescence polarization); assay type: biochemical; conditions: 100 μM ATP, 30 minutes at 25° C.
Procedure, shortened: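 Activity was read by IMAP fluorescence polarization, where phosphopeptide binding to M(III) nanoparticles raises FP. The 30-minute, 25° C reaction used 100 μM ATP, 100 nM RP7030 substrate and 0.5 nM GST-IRAK-4 in pH 7.2 Tris buffer with MgCl2, DTT and Tween 20.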

Sequence of GST tagged IRAK-4 (Q9NWZ3 whole entry): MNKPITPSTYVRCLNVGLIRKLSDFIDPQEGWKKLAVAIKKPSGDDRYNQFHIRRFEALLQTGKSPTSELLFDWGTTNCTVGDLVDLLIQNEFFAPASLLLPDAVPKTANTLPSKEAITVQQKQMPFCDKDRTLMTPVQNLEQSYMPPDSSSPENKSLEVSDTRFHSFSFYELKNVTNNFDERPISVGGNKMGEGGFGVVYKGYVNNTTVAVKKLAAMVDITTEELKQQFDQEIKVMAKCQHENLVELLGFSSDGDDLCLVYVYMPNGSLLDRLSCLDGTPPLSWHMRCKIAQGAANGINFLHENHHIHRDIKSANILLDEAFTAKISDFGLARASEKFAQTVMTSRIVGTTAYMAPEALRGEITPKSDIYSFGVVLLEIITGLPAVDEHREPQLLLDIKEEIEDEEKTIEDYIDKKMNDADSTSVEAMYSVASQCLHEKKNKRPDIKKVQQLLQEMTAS

| SMILES | IC50 |
| --- | --- |
| Cc1ccc(-n2nc(C3CCN(C4CCC(N(C)S(C)(=O)=O)CC4)CC3)cc2NC(=O)c2cnn3cccnc23)cc1 (centres unmarked) [Example 251, N-[3-(1-{4-[methyl(methylsulfonyl)amino]cyclohexyl}piperidin-4-yl)-1-(4-methylphenyl)-1H-pyrazol-5-yl]pyrazolo[1,5-a]pyrimidine-3-carboxamide] | < 0.1 µM |
| Cc1ccc(-n2nc(C3CCN(C4CCC(NS(C)(=O)=O)CC4)CC3)cc2NC(=O)c2cnn3cccnc23)cc1 (centres unmarked) [Example 252, N-[1-(4-methylphenyl)-3-(1-{4-[(methylsulfonyl)amino]cyclohexyl}piperidin-4-yl)-1H-pyrazol-5-yl]pyrazolo[1,5-a]pyrimidine-3-carboxamide] | < 0.1 µM |
| Cc1ccc(-n2nc(C3CCN(C4CCC(C#N)CC4)CC3)cc2NC(=O)c2cnn3cccnc23)cc1 (centres unmarked) [Example 253, N-{3-[1-(4-cyanocyclohexyl)piperidin-4-yl]-1-(4-methylphenyl)-1H-pyrazol-5-yl}pyrazolo[1,5-a]pyrimidine-3-carboxamide] | < 0.1 µM |
| Cc1ccc(-n2nc(C3CCN(C4CCC5CC54)CC3)cc2NC(=O)c2cnn3cccnc23)cc1 (centres unmarked) [Example 254, N-[3-(1-bicyclo[3.1.0]hex-2-ylpiperidin-4-yl)-1-(4-methylphenyl)-1H-pyrazol-5-yl]pyrazolo[1,5-a]pyrimidine-3-carboxamide] | < 0.1 µM |
| Cc1ccc(-n2nc(C3CCN(C4CCC5(CCC(=O)N5)CC4)CC3)cc2NC(=O)c2cnn3cccnc23)cc1 (centres unmarked) [Example 255, N-{1-(4-methylphenyl)-3-[1-(2-oxo-1-azaspiro[4.5]dec-8-yl)piperidin-4-yl]-1H-pyrazol-5-yl}pyrazolo[1,5-a]pyrimidine-3-carboxamide] | < 0.1 µM |
| Cc1ccc(-n2nc(C3CCN(C4CC(C(C)(C)C)C4)CC3)cc2NC(=O)c2cnn3cccnc23)cc1 (centres unmarked) [Example 256, N-{3-[1-(3-tert-butylcyclobutyl)piperidin-4-yl]-1-(4-methylphenyl)-1H-pyrazol-5-yl}pyrazolo[1,5-a]pyrimidine-3-carboxamide] | < 0.1 µM |
| Cc1ccc(-n2nc(C3CCN(C4CC5(CCCC5)C4)CC3)cc2NC(=O)c2cnn3cccnc23)cc1 [Example 257, N-[1-(4-methylphenyl)-3-(1-spiro[3.4]oct-2-ylpiperidin-4-yl)-1H-pyrazol-5-yl]pyrazolo[1,5-a]pyrimidine-3-carboxamide] | < 0.1 µM |
| Cc1ccc(-n2nc(C3CCN(C4CC(C#N)C4)CC3)cc2NC(=O)c2cnn3cccnc23)cc1 (centres unmarked) [Example 258, N-{3-[1-(3-cyanocyclobutyl)piperidin-4-yl]-1-(4-methylphenyl)-1H-pyrazol-5-yl}pyrazolo[1,5-a]pyrimidine-3-carboxamide] | < 0.1 µM |
| Cc1ccc(-n2nc(C3CCN(C4CCC(N(C)S(C)(=O)=O)CC4)CC3)cc2NC(=O)c2cnn3cccnc23)nc1 (centres unmarked) [Example 262, N-[3-(1-{4-[methyl(methylsulfonyl)amino]cyclohexyl}piperidin-4-yl)-1-(5-methylpyridin-2-yl)-1H-pyrazol-5-yl]pyrazolo[1,5-a]pyrimidine-3-carboxamide] | < 0.1 µM |
| Cc1ccc(-n2nc(C3CCN(C4CCC(NS(C)(=O)=O)CC4)CC3)cc2NC(=O)c2cnn3cccnc23)nc1 (centres unmarked) [Example 263, N-[1-(5-methylpyridin-2-yl)-3-(1-{4-[(methylsulfonyl)amino]cyclohexyl]piperidin-4-yl)-1H-pyrazol-5-yl}pyrazolo[1,5-a]pyrimidine-3-carboxamide] | < 0.1 µM |
| Cc1ccc(-n2nc(C3CCN(C4CCCOC4)CC3)cc2NC(=O)c2cnn3cccnc23)nc1 (centres unmarked) [Example 264, N-{1-(5-methylpyridin-2-yl)-3-[1-(tetrahydro-2H-pyran-3-yl)piperidin-4-yl]-1H-pyrazol-5-yl}pyrazolo[1,5-a]pyrimidine-3-carboxamide] | < 0.1 µM |
| Cc1ccc(-n2nc(C3CCN(C4CCC(C#N)CC4)CC3)cc2NC(=O)c2cnn3cccnc23)nc1 (centres unmarked) [Example 265, N-{3-[1-(4-cyanocyclohexyl)piperidin-4-yl]-1-(5-methylpyridin-2-yl)-1H-pyrazol-5-yl}pyrazolo[1,5-a]pyrimidine-3-carboxamide] | < 0.1 µM |
| Cc1ccc(-n2nc(C3CCN(C4CCN(c5ccc(F)cc5)C4)CC3)cc2NC(=O)c2cnn3cccnc23)nc1 (centres unmarked) [Example 266, N-[3-{1-[1-(4-fluorophenyl)pyrrolidin-3-yl]piperidin-4-yl]-1-(5-methylpyridin-2-yl)-1H-pyrazol-5-yl}pyrazolo-[1,5-a]pyrimidine-3-carboxamide] | < 0.1 µM |
| Cc1ccc(-n2nc(C3CCN(C4CCN(C5CC5)CC4)CC3)cc2NC(=O)c2cnn3cccnc23)nc1 [Example 267, N-[3-(1′-cyclopropyl-1,4′-bipiperidin-4-yl)-1-(5-methylpyridin-2-yl)-1H-pyrazol-5-yl]pyrazolo[1,5-a]pyrimidine-3-carboxamide] | < 0.1 µM |
| Cc1ccc(-n2nc(C3CCN(C4CCc5ccncc5C4)CC3)cc2NC(=O)c2cnn3cccnc23)nc1 (centres unmarked) [Example 268, N-{1-(5-methylpyridin-2-yl)-3-[1-(5,6,7,8-tetrahydroisoquinolin-7-yl)piperidin-4-yl]-1H-pyrazol-5-yl}pyrazolo[1,5-a]pyrimidine-3-carboxamide] | < 0.1 µM |
| Cc1ccc(-n2nc(C3CCN(C4CC(N(C)C)C4)CC3)cc2NC(=O)c2cnn3cccnc23)nc1 (centres unmarked) [Example 269, N-[3-{1-[3-(dimethylamino)cyclobutyl]piperidin-4-yl}-1-(5-methylpyridin-2-yl)-1H-pyrazol-5-yl]pyrazolo[1,5-a]pyrimidine-3-carboxamide] | < 0.1 µM |
| Cc1ccc(-n2nc(C3CCN(C(C)C)CC3)cc2NC(=O)c2cnn3cccnc23)nc1 [Example 270, N-{3-[1-(1-methylethyl)piperidin-4-yl]-1-(5-methylpyridin-2-yl)-1H-pyrazol-5-yl}pyrazolo[1,5-a]pyrimidine-3-carboxamide] | < 0.1 µM |
| Cc1ccc(-n2nc(C3CCN(C4CCC(C(F)(F)F)CC4)CC3)cc2NC(=O)c2cnn3cccnc23)nc1 (centres unmarked) [Example 271, N-[1-(5-methylpyridin-2-yl)-3-{1-[4-(trifluoromethyl)cyclohexyl]piperidin-4-yl}-1H-pyrazol-5-yl]pyrazolo[1,5-a]pyrimidine-3-carboxamide] | < 0.1 µM |
| Cc1ccc(-n2nc(C3CCN(C4CCC(C)C4)CC3)cc2NC(=O)c2cnn3cccnc23)nc1 (centres unmarked) [Example 272, N-{3-[1-(3-methylcyclopentyl)piperidin-4-yl]-1-(5-methylpyridin-2-yl)-1H-pyrazol-5-yl}pyrazolo[1,5-a]pyrimidine-3-carboxamide] | < 0.1 µM |
| Cc1ccc(-n2nc(C3CCN(C4CC[C@@H](C)C4)CC3)cc2NC(=O)c2cnn3cccnc23)nc1 (stereo partly drawn) [Example 273, N-[3-{1-[(3R)-3-methylcyclopentyl]piperidin-4-yl}-1-(5-methylpyridin-2-yl)-1H-pyrazol-5-yl]pyrazolo[1,5-a]pyrimidine-3-carboxamide] | < 0.1 µM |
| Cc1ccc(-n2nc(C3CCN(C4CCC4)CC3)cc2NC(=O)c2cnn3cccnc23)nc1 [Example 274, N-[3-(1-cyclobutylpiperidin-4-yl)-1-(5-methylpyridin-2-yl)-1H-pyrazol-5-yl]pyrazolo[1,5-a]pyrimidine-3-carboxamide] | < 0.1 µM |
| Cc1ccc(-n2nc(C3CCN(C4CCN(C)CC4)CC3)cc2NC(=O)c2cnn3cccnc23)nc1 [Example 275, N-[3-(1′-methyl-1,4′-bipiperidin-4-yl)-1-(5-methylpyridin-2-yl)-1H-pyrazol-5-yl]pyrazolo[1,5-a]pyrimidine-3-carboxamide] | < 0.1 µM |
| CCOC(=O)N1CCC(N2CCC(c3cc(NC(=O)c4cnn5cccnc45)n(-c4ccc(C)cn4)n3)CC2)CC1 [Example 276, ethyl 4-{1-(5-methylpyridin-2-yl)-5-[(pyrazolo[1,5-a]pyrimidin-3-ylcarbonyl)amino]-1H-pyrazol-3-yl}-1,4′-bipiperidine-1′-carboxylate] | < 0.1 µM |

same assay, conditions: 100 μM ATP, 30 minutes at 25° C.; μM

| SMILES | IC50 |
| --- | --- |
| Cc1ccc(-n2nc(C3CCN(C4CN(S(=O)(=O)CF)C4)CC3)cc2NC(=O)c2cnn3cccnc23)cc1 [Example 247, N-[3-(1-{1-[(fluoromethyl)sulfonyl]azetidin-3-yl]piperidin-4-yl)-1-(4-methylphenyl)-1H-pyrazol-5-yl}pyrazolo[1,5-a]pyrimidine-3-carboxamide] | < 1 µM |
| CC(=O)N1CC(N2CCC(c3cc(NC(=O)c4cnn5cccnc45)n(-c4ccc(C)cc4)n3)CC2)C1 [Example 248, N-{3-[1-(1-acetylazetidin-3-yl)piperidin-4-yl]-1-(4-methylphenyl)-1H-pyrazol-5-yl}pyrazolo pyrimidine-3-carboxamide] | < 1 µM |
| CCC(=O)N1CC(N2CCC(c3cc(NC(=O)c4cnn5cccnc45)n(-c4ccc(C)cc4)n3)CC2)C1 [Example 249, N-{1-(4-methylphenyl)-3-[1-(1-propanoylazetidin-3-yl)piperidin-4-yl]-1H-pyrazol-5-yl}pyrazolo[1,5-a]pyrimidine-3-carboxamide] | < 1 µM |
| Cc1ccc(-n2nc(C3CCN(C4CCC(F)(F)CC4)CC3)cc2NC(=O)c2cnn3cccnc23)cc1 [Example 259, N-{3-[1-(4,4-difluorocyclohexyl)piperidin-4-yl]-1-(4-methylphenyl)-1H-pyrazol-5-yl}pyrazolo[1,5-a]pyrimidine-3-carboxamide] | < 1 µM |
| Cc1ccc(-n2nc(C3CCN(C(C)CC(F)(F)F)CC3)cc2NC(=O)c2cnn3cccnc23)cc1 (centres unmarked) [Example 260, N-{1-(4-methylphenyl)-3-[1-(3,3,3-trifluoro-1-methylpropyl)piperidin-4-yl]-1H-pyrazol-5-yl}pyrazolo[1,5-a]pyrimidine-3-carboxamide] | < 1 µM |
| Cc1ccc(-n2nc(C3CCN(C4CN(C(=O)OC(C)(C)C)C4)CC3)cc2NC(=O)c2cnn3cccnc23)cc1 [Example 261, tert-butyl 3-(4-{1-(4-methylphenyl)-5-[(pyrazolo[1,5-a]pyrimidin-3-ylcarbonyl)amino]-1H-pyrazol-3-yl}piperidin-1-yl)azetidine-1-carboxylate] | < 1 µM |
